Reference: patent US9174996B2, “Protein kinase inhibitors” (Astar Biotech LLC, priority 2012, dated 2015)

How the values were obtained:
K562 cells = assay: Cell death assay, Experiment 1 (live cells counted by trypan blue); type: cell-based; details: Homo sapiens, 100 nM, 48 hours, read-out: % live cells (vs control)

SMILES	melting point	viability at 0.1 µM (K562 cells)
Cc1ccc(C(=O)Nc2ccc(CN3CCN(C)CC3)c(C(F)(F)F)c2)cc1C#Cc1cnc2cccnn12 [AP-24534, reference compound]		10.1%
Cc1ccc(-c2nc3ccc(CN4CCN(C)CC4)cc3[nH]2)cc1C#Cc1ccc(NC2CCC2)nn1 [Compound 1, N-Cyclobutyl-6-(2-(2-methyl-5-(6-((4-methylpiperazin-1-yl)methyl)-1H-benzo[d]imidazol-2-yl)phenyl)ethynyl)pyridazin-3-amine]	148 to 150 °C	
Cc1ccc(-c2nc3ccc(CN4CCN(C)CC4)cc3[nH]2)cc1C#Cc1ccc(NC2CC2)nn1 [Compound 2, N-Cyclopropyl-6-(2-(2-methyl-5-(6-((4-methylpiperazin-1-yl)methyl)-1H-benzo[d]imidazol-2-yl)phenyl)ethynyl)pyridazin-3-amine]	145 to 146 °C	
Cc1ccc(-c2nc3ccc(CN4CCN(C)CC4)cc3[nH]2)cc1C#Cc1ccc(NC(C)C)nn1 [Compound 4, N-Isopropyl-6-(2-(2-methyl-5-(6-((4-methylpiperazin-1-yl)methyl)-1H-benzo[d]imidazol-2-yl)phenyl)ethynyl)pyridazin-3-amine]	129 to 130 °C	
Cc1ccc(-c2nc3ccc(CN4CCN(C)CC4)cc3[nH]2)cc1C#Cc1cnc(NC2CC2)nc1 [Compound 5, N-Cyclopropyl-5-(2-(2-methyl-5-(6-((4-methylpiperazin-1-yl)methyl)-1H-benzo[d]imidazol-2-yl)phenyl)ethynyl)pyrimidin-2-amine]	136 to 137 °C	10.8%
CN1CCN(Cc2ccc3nc(-c4ccc(Cl)c(C#Cc5cnc6cccnn56)c4)[nH]c3c2)CC1 [Compound 6, 3-(2-(2-Chloro-5-(6-((4-methylpiperazin-1-yl)methyl)-1H-benzo[d]imidazol-2-yl)phenyl)ethynyl)imidazo[1,2-b]pyridazine]	156 to 157 °C	10.1%
CN1CCN(Cc2ccc3nc(-c4ccc(Cl)c(C#Cc5ccc(NC6CC6)nn5)c4)[nH]c3c2)CC1 [Compound 7, 6-(2-(2-Chloro-5-(6-((4-methylpiperazin-1-yl)methyl)-1H-benzo[d]imidazol-2-yl)phenyl)ethynyl)-N-cyclopropylpyridazin-3-amine]	130 to 131 °C	
CN1CCN(Cc2ccc3nc(-c4ccc(Cl)c(C#Cc5ccc(NC6CCC6)nn5)c4)[nH]c3c2)CC1 [Compound 8, 6-(2-(2-Chloro-5-(6-((4-methylpiperazin-1-yl)methyl)-1H-benzo[d]imidazol-2-yl)phenyl)ethynyl)-N-cyclobutylpyridazin-3-amine]	161 to 163 °C	
CC(C)Nc1ccc(C#Cc2cc(-c3nc4ccc(CN5CCN(C)CC5)cc4[nH]3)ccc2Cl)nn1 [Compound 9, 6-(2-(2-Chloro-5-(6-((4-methylpiperazin-1-yl)methyl)-1H-benzo[d]imidazol-2-yl)phenyl)ethynyl)-N-isopropylpyridazin-3-amine]	127 to 128 °C	
CN1CCN(Cc2ccc3nc(-c4ccc(Cl)c(C#Cc5cnc(NC6CC6)nc5)c4)[nH]c3c2)CC1 [Compound 10, 5-(2-(2-Chloro-5-(6-((4-methylpiperazin-1-yl)methyl)-1H-benzo[d]imidazol-2-yl)phenyl)ethynyl)-N-cyclopropylpyrimidin-2-amine]	160 to 162 °C	11%
Cc1cn(-c2ccc3nc(-c4ccc(C)c(C#Cc5cnc6cccnn56)c4)[nH]c3c2)cn1 [Compound 11, 3-(2-(2-Methyl-5-(6-(4-methyl-1H-imidazol-1-yl)-1H-benzo[d]imidazol-2-yl)phenyl)ethynyl)imidazo[1,2-b]pyridazine]	182 to 184 °C	
Cc1ccc(C(=O)Nc2ccc(CN3CCN(C)CC3)c(C(F)(F)F)c2)cc1C#Cc1ccc(NC(C)C)nn1 [Compound 14, 3-(2-(6-(Isopropylamino)pyridazin-3-yl)ethynyl)-4-methyl-N-(4-((4-methylpiperazin-1-yl)methyl)-3-(trifluoromethyl)phenyl)benzamide]	67 to 68 °C	8.37%

Continued, in another order:

melting point	SMILES	viability at 0.1 µM (K562 cells)
133 to 134 °C	CN1CCN(Cc2ccc(NC(=O)c3ccc(Cl)c(C#Cc4ccc(NC5CC5)nn4)c3)cc2C(F)(F)F)CC1 [Compound 15, 4-Chloro-3-(2-(6-(cyclopropylamino)pyridazin-3-yl)ethynyl)-N-(4-((4-methylpiperazin-1-yl)methyl)-3-(trifluoromethyl)phenyl)benzamide]	17%
132 to 133 °C	CN1CCN(Cc2ccc(NC(=O)c3ccc(Cl)c(C#Cc4ccc(NC5CCC5)nn4)c3)cc2C(F)(F)F)CC1 [Compound 16, 4-Chloro-3-(2-(6-(cyclobutylamino)pyridazin-3-yl)ethynyl)-N-(4-((4-methylpiperazin-1-yl)methyl)-3-(trifluoromethyl)phenyl)benzamide]	8.46%
133 to 134 °C	CC(C)Nc1ccc(C#Cc2cc(C(=O)Nc3ccc(CN4CCN(C)CC4)c(C(F)(F)F)c3)ccc2Cl)nn1 [Compound 17]	18.3%
125 to 126 °C	Cc1cn(-c2ccc(NC(=O)c3ccc(C)c(C#Cc4ccc(NC5CC5)nn4)c3)cc2C(F)(F)F)cn1 [Compound 18, 3-(2-(6-(Cyclopropylamino)pyridazin-3-yl)ethynyl)-4-methyl-N-(4-(4-methyl-1H-imidazol-1-yl)-3-(trifluoromethyl)phenyl)benzamide]	
141 to 143 °C	Cc1cn(-c2ccc(NC(=O)c3ccc(C)c(C#Cc4ccc(NC(C)C)nn4)c3)cc2C(F)(F)F)cn1 [Compound 19, 3-(2-(6-(Isopropylamino)pyridazin-3-yl)ethynyl)-4-methyl-N-(4-(4-methyl-1H-imidazol-1-yl)-3-(trifluoromethyl)phenyl)benzamide]	
150 to 152 °C	Cc1cn(-c2ccc(NC(=O)c3ccc(Cl)c(C#Cc4ccc(NC5CC5)nn4)c3)cc2C(F)(F)F)cn1 [Compound 20, 4-Chloro-3-(2-(6-(cyclopropylamino)pyridazin-3-yl)ethynyl)-N-(4-(4-methyl-1H-imidazol-1-yl)-3-(trifluoromethyl)phenyl)benzamide]	
153 to 155 °C	Cc1cn(-c2ccc(NC(=O)c3ccc(Cl)c(C#Cc4ccc(NC5CCC5)nn4)c3)cc2C(F)(F)F)cn1 [Compound 21, 4-Chloro-3-(2-(6-(cyclobutylamino)pyridazin-3-yl)ethynyl)-N-(4-(4-methyl-1H-imidazol-1-yl)-3-(trifluoromethyl)phenyl)benzamide]	
133 to 135 °C	Cc1cn(-c2ccc(NC(=O)c3ccc(Cl)c(C#Cc4ccc(NC(C)C)nn4)c3)cc2C(F)(F)F)cn1 [Compound 22]	
223 to 225 °C	Cc1cn(-c2cc(NC(=O)c3ccc(C)c(C#Cc4ccc(NC5CCC5)nn4)c3)cc(C(F)(F)F)c2)cn1 [Compound 24, 3-(2-(6-(Cyclobutylamino)pyridazin-3-yl)ethynyl)-4-methyl-N-(3-(4-methyl-1H-imidazol-1-yl)-5-(trifluoromethyl)phenyl)benzamide]	16.4%
192 to 194 °C	Cc1cn(-c2cc(NC(=O)c3ccc(C)c(C#Cc4ccc(NC(C)C)nn4)c3)cc(C(F)(F)F)c2)cn1 [Compound 25, 3-(2-(6-(Isopropylamino)pyridazin-3-yl)ethynyl)-4-methyl-N-(3-(4-methyl-1H-imidazol-1-yl)-5-(trifluoromethyl)phenyl)benzamide]	
213 to 215 °C	Cc1cn(-c2cc(NC(=O)c3ccc(Cl)c(C#Cc4ccc(NC5CC5)nn4)c3)cc(C(F)(F)F)c2)cn1 [Compound 26, 4-Chloro-3-(2-(6-(cyclopropylamino)pyridazin-3-yl)ethynyl)-N-(3-(4-methyl-1H-imidazol-1-yl)-5-(trifluoromethyl)phenyl)benzamide]	18.3%
225 to 227 °C	Cc1cn(-c2cc(NC(=O)c3ccc(Cl)c(C#Cc4ccc(NC5CCC5)nn4)c3)cc(C(F)(F)F)c2)cn1 [Compound 27, 4-Chloro-3-(2-(6-(cyclobutylamino)pyridazin-3-yl)ethynyl)-N-(3-(4-methyl-1H-imidazol-1-yl)-5-(trifluoromethyl)phenyl)benzamide]	
131 to 133 °C	Cc1cn(-c2ccc(NC(=O)c3ccc(C)c(C#Cc4cnc(NC5CC5)nc4)c3)cc2C(F)(F)F)cn1 [Compound 28, 3-(2-(2-(Cyclopropylamino)pyrimidin-5-yl)ethynyl)-4-methyl-N-(4-(4-methyl-1H-imidazol-1-yl)-3-(trifluoromethyl)phenyl)benzamide]	12.7%
141 to 143 °C	Cc1cn(-c2ccc(NC(=O)c3ccc(Cl)c(C#Cc4cnc(NC5CC5)nc4)c3)cc2C(F)(F)F)cn1 [Compound 29, 4-Chloro-3-(2-(2-(cyclopropylamino)pyrimidin-5-yl)ethynyl)-N-(4-(4-methyl-1H-imidazol-1-yl)-3-(trifluoromethyl)phenyl)benzamide]	5.87%
153 to 155 °C	Cc1cn(-c2ccc(NC(=O)c3ccc(Cl)c(C#Cc4cnc5cccnn45)c3)cc2C(F)(F)F)cn1 [Compound 31, 4-Chloro-3-(2-(imidazo[1,2-b]pyridazin-3-yl)ethynyl)-N-(4-(4-methyl-1H-imidazol-1-yl)-3-(trifluoromethyl)phenyl)benzamide]	14.4%
153 to 154 °C	Cc1cn(-c2cc(NC(=O)c3ccc(Cl)c(C#Cc4cnc5cccnn45)c3)cc(C(F)(F)F)c2)cn1 [Compound 32, 4-Chloro-3-(2-(imidazo[1,2-b]pyridazin-3-yl)ethynyl)-N-(3-(4-methyl-1H-imidazol-1-yl)-5-(trifluoromethyl)phenyl)benzamide]	9.57%
163 to 165 °C	Cc1cn(-c2cc(NC(=O)c3ccc(Cl)c(C#Cc4cnc(NC5CC5)nc4)c3)cc(C(F)(F)F)c2)cn1 [Compound 33, 4-Chloro-3-(2-(2-(cyclopropylamino)pyrimidin-5-yl)ethynyl)-N-(3-(4-methyl-1H-imidazol-1-yl)-5-(trifluoromethyl)phenyl)benzamide]	7.97%
